Laboratory results from patent US8999956B2, “N-[(het)arylalkyl)] pyrazole(thio)carboxamides and their heterosubstituted analogues” (Bayer Intellectual Property GmbH, priority 2010, dated 2015).
Read-outs that look alike come from different tables or passages of the source.

What was measured:
Puccinia triticina = assay: In vivo preventive test on Puccinia triticina (wheat); conditions: for pest or weed control at 500 ppm: Puccinia triticina, 192 h, read-out: Efficacy
Pyrenophora teres = assay: In vivo preventive test on Pyrenophora teres (barley); conditions: 500 ppm of active ingredient, evaluated 7-9 days after inoculation
Procedure: (§1) Solvent: 49 parts by weight of N,N-dimethylformamide Emulsifier: 1 part by weight of alkylaryl polyglycol ether To produce a suitable preparation of active compound, 1 part by weight of active compound is mixed with the stated amounts of solvent and emulsifier, and the concentrate is diluted with water to the desired concentration. To test for preventive activity, young plants are sprayed with the preparation of active compound at the stated rate of application. One day after this treatment, the plants are inoculated with an aqueous spore suspension of Pyrenophora teres.

Alternaria solani = assay: In vivo preventive test on Alternaria solani (tomato); conditions: 500 ppm of active ingredient, evaluated 7 days after inoculation
Procedure: as §1, with “Alkylarylpolyglycolether” for “alkylaryl polyglycol ether”, “Alternaria solani.” for “Pyrenophora teres.”

[1] = log P by HPLC on reversed-phase column (EEC Directive 79/831 Annex V.A8); format: physicochemical
Procedure: In table 1, the log P values were determined in accordance with EEC Directive 79/831 Annex V.A8 by HPLC (High Performance Liquid Chromatography) on a reversed-phase column (C18), using the method described below: Temperature: 40° C.; […]

[2] = test system: aflatoxines produced by Aspergillus parasiticus; assay: microbe, parasite or virus in culture; format: cell-based
Aspergillus parasiticus = assay: microbe, parasite or virus in culture; format: cell-based
[3] = Table K, 500 ppm of active ingredient, evaluated 8 days after inoculation
[4] = 500 ppm of active ingredient, evaluated 8 days after inoculation
[5] = Table K6, dose 500 ppm, comparison with des-fluoro analogues

Structure (SMILES)	Efficacy (Pyrenophora teres) [%]	Efficacy (Alternaria solani) [%]	logP [1]	% Inhibition of Aflatoxin at 50 μM [2] [%]	% Inhibition of fungal growth at 50 μM (Aspergillus parasiticus) [%]	further results
CN(CCCc1cc(Cl)ccc1Cl)C(=O)c1c(C(F)F)nn(C)c1Cl [Example 167]	80	100	3.62	–	–	Efficacy (Puccinia triticina; [3]): 70%
CN(CCCc1cc(Cl)ccc1Cl)C(=O)c1c(C(F)F)nn(C)c1F [Example 166]	100	100	3.48	100	88	Efficacy (Puccinia triticina; [3]): 78%
CC(COc1ccc(Cl)cc1Cl)N(C(=O)c1cn(C)nc1C(F)F)C1CC1 (centres unmarked) [18 from WO-2010/012795, N-cyclopropyl-N-[1-(2,4-dichlorophenoxy)propan-2-yl]-3-(difluoromethyl)-1-methyl-1H-pyrazole-4-carboxamide, reference compound]	–	–	–	–	–	pest or weed control at 500 ppm (Puccinia triticina; [4]): < 30%
Cn1nc(C(F)F)c(C(=O)NC2CCCCC2C2CCCCC2)c1F (centres unmarked) [Example 374]	–	–	4.34	–	–	Efficacy (Puccinia triticina; [4]): total protection; Efficacy (Puccinia triticina; [5]): 100%; Efficacy (Puccinia triticina; [3]): 100%
Cn1nc(C(F)F)c(C(=O)N(CCOc2c(Cl)cccc2Cl)C2CC2)c1F [Example 124, N-cyclopropyl-N-[2-(2,6-dichlorophenoxy)ethyl]-3-(difluoromethyl)-5-fluoro-1-methyl-1H-pyrazole-4-carboxamide]	90	95	4.23	–	–	% Inhibition of Aflatoxin at 50 μM ([2]; 50 µM): 99%; % Inhibition of fungal growth at 50 μM (Aspergillus parasiticus; 50 µM): 81%
Cn1nc(C(F)F)c(C(=O)NC(C)(C)CCc2cc(Cl)ccc2Cl)c1F [Example 178]	100	95	4.26	100	88	–
CC(COc1cc(Cl)cc(Cl)c1)NC(=O)c1c(C(F)F)nn(C)c1Cl (racemic) [Example 122]	100	100	3.92	100	91	–
CC(CSc1ccc(Cl)cc1Cl)NC(=O)c1c(C(F)F)nn(C)c1Cl (centres unmarked) [Example 192]	100	95	4.01	100	91	–
CC(CCc1ccc(Cl)c(Cl)c1)NC(=O)c1c(C(F)F)nn(C)c1F (racemic) [Example 132]	100	100	3.65	100	85	–
Cn1nc(C(F)F)c(C(=O)NC2CCCCC2Oc2ccccc2)c1Cl (centres unmarked) [Example 246]	–	–	3.76	–	–	Efficacy (Puccinia triticina; [3]): 95%
Cn1nc(C(F)F)c(C(=O)NC(C)(C)CCc2cc(Cl)cc(Cl)c2)c1F [Example 126]	100	90	4.41	100	89	–
CCC(COc1cc(Cl)ccc1Cl)NC(=O)c1c(C(F)F)nn(C)c1F (centres unmarked) [Example 175]	95	95	3.83	100	92	–
Cc1nn(C)c(F)c1C(=O)NC1CCCCC1C1CCCCC1 (centres unmarked) [compound CMP4, N-[1,1′-bi(cyclohexyl)-2-yl]-5-fluoro-1,3-dimethyl-1H-pyrazole-4-carboxamide, reference compound]	–	–	–	–	–	Efficacy (Puccinia triticina; [4]): no protection; pest or weed control at 500 ppm (Puccinia triticina; [5]): 0%
Cn1cc(C(=O)NC2CCCCC2C2CCCCC2)c(C(F)F)n1 (centres unmarked) [compound CMP5, N-[1,1′-bi(cyclohexyl)-2-yl]-3-(difluoromethyl)-1-methyl-1H-pyrazole-4-carboxamide, reference compound]	–	–	–	–	–	Efficacy (Puccinia triticina; [4]): no protection; pest or weed control at 500 ppm (Puccinia triticina; [5]): 0%
CC(COc1cc(Cl)ccc1Cl)NC(=O)c1c(C(F)F)nn(C)c1F (centres unmarked) [Example 173]	78	90	3.46	100	85	–
CC(CCc1ccccc1Cl)NC(=O)c1c(C(F)F)nn(C)c1Cl (racemic) [Example 143]	100	100	3.41	96	73	–

Structure (SMILES)	Efficacy (Pyrenophora teres) [%]	Efficacy (Alternaria solani) [%]	logP [1]	% Inhibition of Aflatoxin at 50 μM [2] [%]	% Inhibition of fungal growth at 50 μM (Aspergillus parasiticus) [%]	further results
CC(CSc1ccc(Cl)cc1Cl)NC(=O)c1c(C(F)F)nn(C)c1F (centres unmarked) [Example 191]	100	95	3.76	100	100	–
Cc1cccc(C)c1OCCNC(=O)c1c(C(F)F)nn(C)c1F [Example 151]	94	90	2.88	100	100	–
CC(CNC(=O)c1c(C(F)F)nn(C)c1F)Cc1ccc(Cl)c(Cl)c1 (racemic) [Example 128]	100	95	3.68	83	71	–
CC(CCc1c(Cl)cc(Cl)cc1Cl)N(C(=O)c1c(C(F)F)nn(C)c1Cl)C1CC1 (centres unmarked) [Example 214]	100	80	4.31	100	93	–
CC(CNC(=O)c1c(C(F)F)nn(C)c1F)Cc1cc(Cl)ccc1Cl (centres unmarked) [Example 165]	100	90	3.65	99	83	–
Cc1cccc(OC2CCCC2NC(=O)c2c(C(F)F)nn(C)c2F)c1 (centres unmarked) [Example 259]	78	90	3.52	97	82	–
Cn1nc(C(F)F)c(C(=O)NC(C)(C)CCc2cccc(C(F)(F)F)c2)c1F [Example 136]	95	80	3.94	93	71	–
Cc1nn(C)c(F)c1C(=O)N(C(C)CCc1ccc(Cl)c(Cl)c1)C1CC1 (centres unmarked) [E-13 from WO-2008/101976, N-cyclopropyl-N-[4-(3,4-dichlorophenyl)butan-2-yl]-5-fluoro-1,3-dimethyl-1H-pyrazole-4-carboxamide, reference compound]	–	–	–	–	–	Efficacy (Puccinia triticina; 500 ppm of active ingredient, evaluated 8 days after inoculation, listed as example E-13 disclosed in patent application WO-2008/101976): no protection; pest or weed control at 500 ppm (Puccinia triticina; [4]): 0%
CC(CNC(=O)c1c(C(F)F)nn(C)c1F)Cc1cc(Cl)cc(Cl)c1 (centres unmarked) [Example 116]	100	90	3.83	100	82	–
Cn1nc(C(F)F)c(C(=O)NC(C)(C)CCc2ccccc2Cl)c1F [Example 148]	95	95	3.79	90	67	–
Cn1nc(C(F)F)c(C(=O)NCCCc2ccc(Cl)cc2Cl)c1F [Example 180]	100	90	3.46	100	100	–
CC(CCc1ccccc1C(F)(F)F)N(C(=O)c1c(C(F)F)nn(C)c1Cl)C1CC1 (centres unmarked) [Example 220]	100	95	4.26	–	–	Efficacy (Puccinia triticina; [3]): 90%
CC(COc1cc(Cl)ccc1Cl)NC(=O)c1c(C(F)F)nn(C)c1Cl (centres unmarked) [Example 174]	95	100	3.69	85	67	–
Cc1cccc(C)c1OCC(C)N(C(=O)c1c(C(F)F)nn(C)c1F)C1CC1 (centres unmarked) [Example 155]	100	–	3.94	100	100	Efficacy (Puccinia triticina; [3]): 90%
Cn1nc(C(F)F)c(C(=O)N(C[Si](C)(C)Cc2ccc(Cl)cc2Cl)C2CC2)c1Cl [Example 297]	100	100	5.19	100	85	–
